Patent publication US7037929B1, “2-amino-thiazole derivatives, process for their preparation, and their use as antitumor agents” (Pharmacia & Upjohn S.p.A., priority 1998, dated 2006)

Target: cdk2/cyclin A complex (Homo sapiens, UniProt P24941)
Assay: inhibition assay of cdk2/Cyclin A activity (MultiScreen-PH phosphocellulose filter plate, 33P-ATP, histone H1)
Type: biochemical
Conditions: ATP and histone H1 substrate concentrations varied; random bireactant system equation; read-out: inhibiting activity towards the cdk2/cyclin A complex (Ki)
Method: The inhibiting activity of putative cdk/cyclin inhibitors and the potency of selected compounds was determined through a method of assay based on the use of the MultiScreen-PH 96 well plate (Millipore), in which a phosphocellulose filter paper was placed at each well bottom allowing binding of positive charged substrate after a washing/filtration step.
When a radioactivity labelled phosphate moiety was transferred by the ser/threo kinase to the filter-bound histone, light emitted was measured in a scintillation counter. The inhibition assay of cdk2/Cyclin A activity was performed according to the following protocol:
Kinase reaction: 1.5 μM histone H1 substrate, 25 μM ATP (0. 5 μCi P^33γ-ATP), 30 ng Cyclin A/cdk2 complex, […] in a final volume of 100 μl buffer (TRIS HCl 10 mM pH 7.5, MgCl2 10 mM, 7.5 mM DTT) were added to each well of a 96 U bottom well plate. After 10 min at 37° C. incubation, reaction was stopped by 20 μl EDTA 120 mM.
Capture: 100 μl were transferred from each well to MultiScreen plate, to allow substrate binding to phosphocellulose filter. […]
Detection: filters were allowed to dry at 37° C., then 100 μl/well scintillant were added and ^33P labelled histone H1 was detected by radioactivity counting in the Top-Count instrument.
Results: data were analysed and expressed as % inhibition referred to total activity of enzyme (=100%). […]

`CC(C)c1cnc(NC(=O)Cc2ccc(N(C)C)cc2)s1` [2-[4-(dimethylamino)phenyl]-N-(5-isopropyl-1,3-thiazol-2-yl)acetamide] was tested, and the Ki was 100 nM.
